In one data set the target is T1, human muscarinic 2 (Homo sapiens, UniProt P08172).
T1 sequence (P08172 1-466): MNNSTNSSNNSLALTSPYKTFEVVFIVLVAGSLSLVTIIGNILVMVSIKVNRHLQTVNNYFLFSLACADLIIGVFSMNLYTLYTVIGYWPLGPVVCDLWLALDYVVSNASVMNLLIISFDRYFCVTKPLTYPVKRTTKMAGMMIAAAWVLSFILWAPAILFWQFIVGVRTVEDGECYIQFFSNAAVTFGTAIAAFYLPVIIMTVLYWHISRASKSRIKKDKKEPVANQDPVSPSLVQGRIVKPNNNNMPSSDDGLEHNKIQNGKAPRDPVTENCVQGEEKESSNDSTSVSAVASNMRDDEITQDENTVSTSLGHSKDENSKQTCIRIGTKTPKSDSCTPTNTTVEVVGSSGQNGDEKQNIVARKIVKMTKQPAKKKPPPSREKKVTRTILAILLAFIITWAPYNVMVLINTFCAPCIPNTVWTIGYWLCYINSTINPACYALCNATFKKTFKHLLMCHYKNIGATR
Briefly: Eurofins LeadProfilingScreen, human muscarinic 2 (binding). Conditions: 10 μM (binding). Here is the method:
(§1) Compound 70 was tested using Eurofins LeadProfilingScreen®, which detects potential off-target activity and determines relative selectivity. The screen includes 68 primary molecular targets, including several CNS targets recommended by the EMEA (European Medicines Evaluation Agency) to evaluate drug dependence potential.

Data set [1] in a line: Fraction unbound in human plasma. In kind it is in vitro ADME. Conditions: read-out: Human Fu (plasma). Here is the method:
(§2) Compound 70 was tested in several in in vitro assays to investigate both metabolism and pharmacokinetics. These assays may be performed according to known methods as generally described in the following references: Conde-Ceide et al. ACS Med. Chem. Lett. 2015, 6, 716-720; Morris et al. J. Med. Chem. 2014, 57, 10192-10197; and Bubser et al. ACS Chem. Neurosci. 2014, 5, 920-942.

Data set [2] in a line: Human intrinsic clearance. In kind it is in vitro ADME. As to the method: as §2
Data set [3] is described as follows: MDCK-MDR1 permeability / efflux. In kind it is in vitro ADME. Conditions: dog, MDCK-MDR1. As to the method:
as §2

For another data set, the system named is MDCK-MDR1. The data set can be described thus: MDCK-MDR1 permeability / efflux. In kind it is in vitro ADME. Conditions: efflux ratio. Here is the method:
as §2

The next data set is described as follows: Cyno intrinsic clearance. In kind it is in vitro ADME. Conditions: cynomolgus monkey. As to the method: as §2
Data set [4] in a line: Fraction unbound in dog plasma. In kind it is in vitro ADME. Conditions: read-out: Dog Fu (plasma). Here is the method: as §2
Another data set concerns the target P450 3A4 (Homo sapiens, UniProt P08684). The data set can be described thus: P450 3A4 inhibition. In kind it is in vitro ADME. Here is the method: as §2
In data set [5] the test system is 68 primary molecular targets. Briefly: Eurofins LeadProfilingScreen off-target panel (binding). Conditions: 10 μM (binding), all targets except human muscarinic 2. Here is the method:
as §1

Data set [6] can be described thus: Fraction unbound in rat plasma. In kind it is in vitro ADME. Conditions: read-out: Rat Fu (plasma). As to the method:
as §2

Data set [7] can be described thus: In vivo pharmacokinetics in rat. Here is the method: Compound 70 was tested in several in vivo assays and the pharmacokinetic parameters listed in the following table may be determined from pharmacokinetic studies in rat, dog, or cynomolgus monkey, according to known methods as generally described in the following references: Garrison et al. J. Med. Chem. 2022, 65, 6273-6286; Felts et al. J. Med. Chem 2017, 60, 5072-5085; and Yu et al. J. Med. Chem. 2021, 64, 4709-4729.

The test system of a further data set is male Sprague-Dawley rats. Briefly: Amphetamine-induced hyperlocomotion in rats. Conditions: 100 mg/kg i.p., amphetamine 0.25 mg/kg s.c., p<0.001.

A value given as a limit tells only on which side of the number the result lay.

Sequence of P450 3A4 (P08684 whole entry): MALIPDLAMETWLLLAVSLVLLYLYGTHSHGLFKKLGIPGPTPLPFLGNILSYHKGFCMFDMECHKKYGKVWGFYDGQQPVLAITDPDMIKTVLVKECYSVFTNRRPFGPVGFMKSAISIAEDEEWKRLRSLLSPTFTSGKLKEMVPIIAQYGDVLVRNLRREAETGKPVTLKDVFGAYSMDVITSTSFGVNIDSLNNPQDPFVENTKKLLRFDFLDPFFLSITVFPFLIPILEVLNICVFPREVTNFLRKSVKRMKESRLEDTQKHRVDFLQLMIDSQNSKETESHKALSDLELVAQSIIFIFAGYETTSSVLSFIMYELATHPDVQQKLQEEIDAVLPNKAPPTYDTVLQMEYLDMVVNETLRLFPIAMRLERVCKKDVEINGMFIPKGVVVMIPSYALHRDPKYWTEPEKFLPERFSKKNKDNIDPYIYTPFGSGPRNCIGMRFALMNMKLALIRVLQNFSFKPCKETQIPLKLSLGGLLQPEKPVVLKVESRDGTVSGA

One may read the inhibition as the relative decrease from the control value, in per cent. As usually defined, the CLint scaled is a measure of how fast metabolising enzymes remove a compound, apart from limits set by blood flow. A word on the Papp A→B: it is how fast a substance crosses the layer from the apical side. The term IC50 denotes the concentration that gives 50% inhibition. By Kp is commonly meant tissue or fluid exposure divided by exposure in the circulation. Take `Cc1c(N2CCc3nc(C4(F)CC4)sc3C2)nc2nn(C)c(=O)n2c1C` [Compound 70, 7-(2-(1-fluorocyclopropyl)-6,7-dihydrothiazolo[5,4-c]pyridin-5(4H)-yl)-2,5,6-trimethyl-[1,2,4]triazolo[4,3-a]pyrimidin-3(2H)-one]: the inhibition at 10 µM at human muscarinic 2 was 58%. For the same molecule, the fraction unbound in [1] was found to be 0.217; in data set [4], 0.232; in data set [6], 0.267. Besides, the CLint scaled in data set [2] was 9 mL/min/kg; in the data set “Cyno intrinsic clearance”, 24 mL/min/kg. This molecule also returned an apical-to-basolateral permeability (Papp A→B) in data set [3] of 36.7 ×10⁻⁶ cm/s. Moreover, the “MDCK-MDR1 ER” value in the data set with MDCK-MDR1 is on record as 0.9 (Papp A→ B:. The molecule also returned an IC50 against P450 3A4 greater than 30 µM. Further, the “inhibition of each target in the LeadProfilingScreen” value in data set [5] is less than 50%. Also, in [7] (brain / plasma), the Kp came to 1.4. This molecule also had a Kp uu in data set [7] (brain / plasma, unbound) of 0.3. Also, the “Rat oral F (3 mg/kg)” value in [7] (oral 3 mg/kg) is given as greater than 100%. Also, the clearance in data set [7] (plasma, read-out: Rat CLp) worked out at 4.3 mL/min/kg. The half-life in data set [7] (plasma, read-out: Rat Elim. t1/2 (converted)) was 3.1 h. In addition, the Vd in data set [7] (plasma, read-out: Rat Vss) was determined as 0.7 L/kg. For the same molecule, the “percent reversal of amphetamine-induced hyperlocomotion” value in the data set on male Sprague-Dawley rats is reported as 61.1%.

For the origin of these results see patent publication US12139498B1, “Positive allosteric modulators of the muscarinic acetylcholine receptor M4” (Vanderbilt University, priority 2023, dated 2024).
